# pIC50: −log10 of the molar value.
# How the values were obtained:
# [1] = target: PI3Kγ (Homo sapiens, UniProt P48736); experiment: PI3Kγ kinase assay (ADP-Glo, luminescence); type: biochemical; conditions: final ATP concentration 10 μM; read-out: IC50 of Compound PI3K γ
# Experimental: (§1) PI3Kα, PI3Kβ, PI3Kγ kinases were enzymatically reacted with their substrates ATP and PIP2:3PS, and the amount of the reaction products were determined to reflect the enzymatic activities of PI3Kα, PI3Kβ, PI3Kγ using ADP-Glo reagent and luminescence method (final ATP concentration of 10 μM). The inhibitory activities of Compound 1 of the present invention on PI3Kα, PI3Kβ and PI3Kγ kinases were tested using the above method.
# (§2) Reagents: basic kinase buffer (pH 7.5); PI3Kα, PI3Kβ, PI3Kγ enzyme solutions; solution of PIP2:3PS and ATP; and ADP-Glo kit (containing 10 mM of MgCl2).
# (§3) Among them, the buffer components are: 50 mM of Hepes (pH 7.2 to pH 7.5), 3 mM of MgCl2, 1 mM of EGTA, 0.03% of CHAPS, 100 mM of NaCl, and 2 mM of DTT;
# (§4) Preparation of compound: Compound 1 of the present application was completely dissolved in DMSO and diluted to a specific concentration so that the final concentration of the compound in the incubation system was 1000 nM, 333 nM, 111 nM, 37 nM, 12.4 nM, 4.1 nM, 1.4 nM, 0.46 nM, 0.15 nM and 0.05 nM (PI3Kα); 30,000 nM, 10,000 nM, 3333 nM, 1111 nM, 370 nM, 123 nM, 41 nM, 13.7 nM, 4.6 nM and 1.5 nM (PI3Kβ, PI3Kγ). […]
# [2] = target: PI3Kβ (Homo sapiens, UniProt P42338); experiment: PI3Kβ kinase assay (ADP-Glo, luminescence); type: biochemical; conditions: final ATP concentration 10 μM; read-out: IC50 of Compound PI3K β
# Experimental: as §1, §2, §3, §4
# [3] = target: PI3Kα (Homo sapiens, UniProt P42336); experiment: PI3Kα kinase assay (ADP-Glo, luminescence); type: biochemical; conditions: final ATP concentration 10 μM; read-out: IC50 of Compound PI3K α
# Experimental: as §1, §2, §3, §4
# [4] = system: MCF-7 cells; experiment: Cell proliferation assay (CellTiter Glo), MCF-7; type: cell-based; conditions: Homo sapiens, MCF7; 120 h incubation; read-out: IC50 of compounds on MCF-7 cells
# Experimental: Method: CellTiter Glo assay method was used to observe the growth inhibitory effect of Compound 1 of the present application on human tumor cells MCF-7 and HGC-27 cultured in vitro.
# Assay method: MCF-7 cells were suspended in DMEM medium to form a cell suspension, and the cell concentration was adjusted to 25,000 cells/mL. HGC-27 cells were suspended in RPMI-1640 medium to form a cell suspension, and the cell concentration was adjusted to 5,000 cells/mL. 100 μL of cell suspension was added to a 96-well plate and placed in a CO2 incubator overnight. Compound 1 was completely dissolved in DMSO and 3-fold gradient dilution was performed to obtain a total of 10 concentrations. The 10 concentrations of the compounds to be tested or the DMSO negative control were transferred to the wells containing 100 μL of medium to give final concentrations of the compounds of 30,000 nM, 10,000 nM, 3,333 nM, 1,111 nM, 370 nM, 123 nM, 41 nM, 13.7 nM, and 4.6 nM, respectively. Incubation was performed at 37° C. under 5% CO2 for 96 h for HGC-27 cells and 120 h for MCF-7 cells. Then 100 μL of CellTiter-Glo reagent was added to the above 96-well plate and placed at room temperature for 10 min to stabilize the luminescence signal. The RLU (relative luminescence unit) value was recorded using a VICTOR™ X5 instrument, and then the IC50 value was calculated. […]
# [5] = Pressure sensitivity assay (tabletting, XRPD); type: physicochemical; conditions: pressure 200, 300 and 500 kg/cm^2, 3 min
# [6] = DVS assay; type: physicochemical; conditions: 80% RH, 25° C.
# Experimental: A Surface Measurement Systems Dynamic Vapor Sorption Analyzer (model of DVS Resolution) was used with an N2 flow rate: 200 sccm, detection temperature: 25° C., equilibrium time range: 5 min to 360 min, RH gradient: 10% (50% RH to 90% RH, 90% RH to 0% RH to 90% RH), and 5% (90% RH to 95% RH, 95% RH to 90% RH) to obtain dynamic vapor sorption analysis pattern.
# [7] = Grinding sensitivity assay (XRPD); type: physicochemical; conditions: manual grinding in a mortar, 1 min
# [8] = Stress testing (influencing factors), total impurity content; type: physicochemical
# [9] = Pharmacokinetic assay in rats, single gavage; type: in vivo; conditions: rat, plasma, po, male SD rats, 10 mg/kg
# Experimental: Medicament preparation: the control compound, crystal form M of Compound 1 and amorphous form of Compound 2 obtained in Example 1 were weighed and prepared into a 10 mg/mL of solution to be tested in a mixture of 10% of DMSO, 10% of Solutol and 80% of saline; crystal form C of Compound 1 was added into a mixture of 5% of solutol and 95% of 0.5% CMCNa to prepare a 10 mg/mL of solution to be tested.
# Assay method: 15 male SD rats with weights: 150 g to 300 g were randomly divided into 5 groups of 3 rats each, and […] of the Example compound was administered by single gavage. The blood was collected through the orbital venous plexus at the designated time points (5 min, 15 min, 30 min, 1 h, 2 h, 4 h, 7 h and 24 h) respectively, and the plasma was separated and stored in a refrigerator at −80° C. for spare use. After precipitation of proteins from the above plasma samples by acetonitrile, the supernatant was extracted and mixed with water at 1:1, and 10 μL of which was taken for LC-MS/MS detection.
# [10] = Stability test of crystal form C (influencing factor, accelerated, long-term); type: physicochemical
# Excerpt: The conditions and methods for the stability test of crystal form C of Compound 1 are mainly based on the requirements of “9001 Guidelines for Stability Test of APIs and Pharmaceutical Preparations” of the fourth part general rules of the 2020 edition of the Chinese Pharmacopoeia, as shown in Table 4. [table]
# [11] = system: catalytic subunit of PI3K (α-subunit compared to β-subunit); conditions: cited from earlier work
# [12] = High temperature of 40° C., Day 5
# [13] = High temperature of 40° C., Day 30
# [14] = High temperature of 60° C., Day 5
# [15] = High temperature of 60° C., Day 30
# Sequence of PI3Kα (P42336 whole entry): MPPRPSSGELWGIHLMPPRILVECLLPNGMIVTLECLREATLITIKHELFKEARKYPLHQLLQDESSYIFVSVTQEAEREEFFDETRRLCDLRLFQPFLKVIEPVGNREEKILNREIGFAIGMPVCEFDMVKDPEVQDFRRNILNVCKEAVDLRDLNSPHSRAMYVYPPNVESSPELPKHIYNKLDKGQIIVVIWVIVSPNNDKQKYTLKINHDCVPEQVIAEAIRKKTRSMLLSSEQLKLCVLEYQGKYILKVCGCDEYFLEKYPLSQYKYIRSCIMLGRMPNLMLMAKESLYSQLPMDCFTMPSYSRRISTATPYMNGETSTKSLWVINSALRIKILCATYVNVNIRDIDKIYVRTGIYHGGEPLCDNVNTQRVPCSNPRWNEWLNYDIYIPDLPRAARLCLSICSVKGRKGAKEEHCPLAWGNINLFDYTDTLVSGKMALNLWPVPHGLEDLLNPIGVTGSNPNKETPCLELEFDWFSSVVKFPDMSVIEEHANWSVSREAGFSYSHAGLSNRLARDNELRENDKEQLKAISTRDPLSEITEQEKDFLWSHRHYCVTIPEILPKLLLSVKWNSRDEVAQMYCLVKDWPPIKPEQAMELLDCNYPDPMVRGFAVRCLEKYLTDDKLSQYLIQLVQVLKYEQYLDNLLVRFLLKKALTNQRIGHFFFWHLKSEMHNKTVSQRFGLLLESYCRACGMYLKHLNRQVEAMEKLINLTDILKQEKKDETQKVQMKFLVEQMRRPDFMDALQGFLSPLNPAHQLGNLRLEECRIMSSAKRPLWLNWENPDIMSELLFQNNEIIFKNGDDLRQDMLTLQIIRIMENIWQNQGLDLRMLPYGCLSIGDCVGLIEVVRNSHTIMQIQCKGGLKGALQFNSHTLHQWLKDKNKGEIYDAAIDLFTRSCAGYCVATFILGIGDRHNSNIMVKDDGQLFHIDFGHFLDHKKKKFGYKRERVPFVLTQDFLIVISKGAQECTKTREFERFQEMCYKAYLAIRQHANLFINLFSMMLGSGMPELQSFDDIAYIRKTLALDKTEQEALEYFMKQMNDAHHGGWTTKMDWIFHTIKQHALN
# Sequence of PI3Kα (P27986 whole entry partner): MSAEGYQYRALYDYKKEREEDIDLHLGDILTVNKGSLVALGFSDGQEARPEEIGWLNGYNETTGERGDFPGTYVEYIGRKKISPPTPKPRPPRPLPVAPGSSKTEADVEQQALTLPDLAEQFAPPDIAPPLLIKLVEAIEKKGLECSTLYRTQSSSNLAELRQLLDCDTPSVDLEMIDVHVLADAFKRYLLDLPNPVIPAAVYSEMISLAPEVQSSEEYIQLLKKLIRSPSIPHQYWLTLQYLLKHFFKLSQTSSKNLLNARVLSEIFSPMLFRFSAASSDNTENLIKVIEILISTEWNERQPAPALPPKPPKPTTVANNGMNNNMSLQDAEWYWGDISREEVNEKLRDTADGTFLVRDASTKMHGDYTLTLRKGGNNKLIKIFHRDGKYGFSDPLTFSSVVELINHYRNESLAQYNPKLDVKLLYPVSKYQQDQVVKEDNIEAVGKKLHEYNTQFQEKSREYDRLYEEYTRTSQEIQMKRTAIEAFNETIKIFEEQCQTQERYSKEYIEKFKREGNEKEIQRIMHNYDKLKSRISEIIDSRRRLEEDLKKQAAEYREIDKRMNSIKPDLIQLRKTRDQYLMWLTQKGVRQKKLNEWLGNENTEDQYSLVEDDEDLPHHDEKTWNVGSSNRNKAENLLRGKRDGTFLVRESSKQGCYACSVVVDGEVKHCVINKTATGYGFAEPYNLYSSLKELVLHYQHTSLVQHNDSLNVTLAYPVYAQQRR
# Sequence of PI3Kγ (P48736 whole entry): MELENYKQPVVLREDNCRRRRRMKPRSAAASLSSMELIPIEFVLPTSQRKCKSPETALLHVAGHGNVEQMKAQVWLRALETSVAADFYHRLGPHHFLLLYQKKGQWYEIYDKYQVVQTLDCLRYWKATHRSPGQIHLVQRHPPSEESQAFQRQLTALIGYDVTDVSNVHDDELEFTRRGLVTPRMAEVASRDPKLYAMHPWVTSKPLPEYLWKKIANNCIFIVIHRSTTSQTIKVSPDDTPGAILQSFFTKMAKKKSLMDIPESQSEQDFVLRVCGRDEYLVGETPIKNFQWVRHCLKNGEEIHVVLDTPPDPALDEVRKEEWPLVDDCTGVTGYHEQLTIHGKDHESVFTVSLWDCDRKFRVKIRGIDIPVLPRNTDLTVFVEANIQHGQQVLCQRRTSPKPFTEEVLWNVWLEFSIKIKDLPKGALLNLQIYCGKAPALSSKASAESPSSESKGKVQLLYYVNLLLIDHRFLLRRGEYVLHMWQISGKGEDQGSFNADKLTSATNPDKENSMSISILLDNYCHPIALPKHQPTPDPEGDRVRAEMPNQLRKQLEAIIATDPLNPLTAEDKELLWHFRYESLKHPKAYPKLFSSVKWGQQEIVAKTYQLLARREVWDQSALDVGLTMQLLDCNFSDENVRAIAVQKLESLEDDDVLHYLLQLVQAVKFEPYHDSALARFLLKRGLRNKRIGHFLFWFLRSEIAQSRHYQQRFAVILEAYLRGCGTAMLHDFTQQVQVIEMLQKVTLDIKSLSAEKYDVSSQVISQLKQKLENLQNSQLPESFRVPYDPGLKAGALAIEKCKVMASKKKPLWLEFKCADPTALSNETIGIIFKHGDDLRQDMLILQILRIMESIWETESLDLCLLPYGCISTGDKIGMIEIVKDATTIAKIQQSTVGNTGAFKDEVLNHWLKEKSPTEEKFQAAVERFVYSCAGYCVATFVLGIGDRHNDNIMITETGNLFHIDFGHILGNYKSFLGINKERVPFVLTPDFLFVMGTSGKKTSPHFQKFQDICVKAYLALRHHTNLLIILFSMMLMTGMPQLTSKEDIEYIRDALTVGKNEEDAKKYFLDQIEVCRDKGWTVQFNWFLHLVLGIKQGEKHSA
# Sequence of PI3Kβ (P42338 whole entry): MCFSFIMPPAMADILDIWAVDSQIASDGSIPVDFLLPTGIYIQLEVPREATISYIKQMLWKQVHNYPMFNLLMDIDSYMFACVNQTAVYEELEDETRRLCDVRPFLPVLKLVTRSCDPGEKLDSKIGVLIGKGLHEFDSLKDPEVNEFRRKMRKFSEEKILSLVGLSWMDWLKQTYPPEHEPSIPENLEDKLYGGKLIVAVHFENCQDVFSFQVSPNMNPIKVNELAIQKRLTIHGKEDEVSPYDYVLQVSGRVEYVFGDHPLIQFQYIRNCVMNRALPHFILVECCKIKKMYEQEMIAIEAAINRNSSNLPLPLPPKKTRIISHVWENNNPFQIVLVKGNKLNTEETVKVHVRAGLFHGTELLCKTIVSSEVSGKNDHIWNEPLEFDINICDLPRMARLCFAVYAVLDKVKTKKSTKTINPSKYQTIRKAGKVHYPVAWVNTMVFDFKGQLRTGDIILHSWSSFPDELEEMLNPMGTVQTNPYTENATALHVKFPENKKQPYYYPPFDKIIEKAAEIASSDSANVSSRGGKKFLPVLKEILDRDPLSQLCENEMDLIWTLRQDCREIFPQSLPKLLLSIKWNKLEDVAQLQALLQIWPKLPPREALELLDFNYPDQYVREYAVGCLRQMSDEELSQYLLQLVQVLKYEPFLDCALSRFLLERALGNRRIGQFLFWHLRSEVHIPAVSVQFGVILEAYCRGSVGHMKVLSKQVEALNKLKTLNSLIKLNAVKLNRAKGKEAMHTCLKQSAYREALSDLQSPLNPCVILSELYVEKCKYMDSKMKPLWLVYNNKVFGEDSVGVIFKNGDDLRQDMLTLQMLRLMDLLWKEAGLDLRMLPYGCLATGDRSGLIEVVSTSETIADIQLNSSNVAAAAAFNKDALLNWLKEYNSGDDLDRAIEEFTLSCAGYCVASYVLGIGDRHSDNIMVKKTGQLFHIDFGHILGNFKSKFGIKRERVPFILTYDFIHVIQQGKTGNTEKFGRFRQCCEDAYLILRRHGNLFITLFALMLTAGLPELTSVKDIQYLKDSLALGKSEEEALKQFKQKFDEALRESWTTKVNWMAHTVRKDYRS
# Sequence of PI3Kβ (P27986 whole entry partner): as the sequence (P27986 whole entry partner) above
Result: crystal form after tabletting [5],mass gain (DVS) [6],Total impurity content of the related material ([8]; Day 0),"Total impurity content of the related material ([8]; High humidity of 75%, Day 5)","Total impurity content of the related material ([8]; High humidity of 75%, Day 30)","Total impurity content of the related material ([8]; High humidity of 92.5%, Day 5)","Total impurity content of the related material ([8]; High humidity of 92.5%, Day 30)","Total impurity content of the related material [8, 12]","Total impurity content of the related material [8, 13]","Total impurity content of the related material [8, 14]","Total impurity content of the related material [8, 15]",SMILES,XRPD pattern after grinding [7],also measured
,,,,,,,,,,,"CC(C)[C@H]1C(=O)N(C2CC2)C(=O)N1c1cn2c(n1)-c1ccc(N3CCC[C@H]3C(N)=O)cc1OCC2 [Compound 1, (S)-1-(2-((S)-3-cyclopropyl-5-isopropyl-2,4-dioxoimidazolidin-1-yl)-5,6-dihydrobenzo[f]imidazo[1,2-d][1,4]oxazepin-9-yl)pyrrolidine-2-carboxamide]",,pIC50 [1]: < 6.22; pIC50 [2]: < 6.22; pIC50 [3]: ≥ 8.30; pIC50 [4]: 7.33
Form B-1,1.9%,0.24%,0.25%,0.29%,0.23%,0.24%,0.26%,0.34%,0.38%,0.43%,"CC(C)[C@H]1C(=O)N(C2CC2)C(=O)N1c1cn2c(n1)-c1ccc(N3CCC[C@H]3C(N)=O)cc1OCC2 [Crystal Form B-1, (S)-1-(2-((S)-3-cyclopropyl-5-isopropyl-2,4-dioxoimidazolidin-1-yl)-5,6-dihydrobenzo[f]imidazo[1,2-d][1,4]oxazepin-9-yl)pyrrolidine-2-carboxamide]",remained consistent with the original patterns,
Form C,0.7%,0.07%,0.07%,0.07%,0.07%,0.07%,0.07%,0.10%,0.08%,0.10%,"CC(C)[C@H]1C(=O)N(C2CC2)C(=O)N1c1cn2c(n1)-c1ccc(N3CCC[C@H]3C(N)=O)cc1OCC2 [Crystal Form C, (S)-1-(2-((S)-3-cyclopropyl-5-isopropyl-2,4-dioxoimidazolidin-1-yl)-5,6-dihydrobenzo[f]imidazo[1,2-d][1,4]oxazepin-9-yl)pyrrolidine-2-carboxamide]",remained consistent with the original patterns,"AUC [9]: 36600 ng·h/mL; Cmax [9]: 3700 ng/mL; change of testing indexes compared with day 0, long-term test ([10]; 25° C. ± 2° C., RH60% ± 5%, 6 months): no significant change; change of testing indexes compared with day 0, accelerated test ([10]; 40° C. ± 2° C., RH75%, 6 months): no significant change; change in characteristics, content, crystal form and isomer compared with day 0 ([10]; uncovered, high temperature (40° C., 60° C.) or high humidity (75%, 92.5%), 30 days): no significant change"
,,0.12%,0.39%,0.61%,0.42%,0.61%,0.55%,0.53%,0.70%,0.64%,"CC(C)[C@H]1C(=O)N(C2CC2)C(=O)N1c1cn2c(n1)-c1ccc(N3CCC[C@H]3C(N)=O)cc1OCC2 [Crystal Form M, (S)-1-(2-((S)-3-cyclopropyl-5-isopropyl-2,4-dioxoimidazolidin-1-yl)-5,6-dihydrobenzo[f]imidazo[1,2-d][1,4]oxazepin-9-yl)pyrrolidine-2-carboxamide]",,
,,,,,,,,,,,Cc1nc(-c2cn3c(n2)-c2ccc(-c4cnn(C(C)(C)C(N)=O)c4)cc2OCC3)n(C(C)C)n1 [Taselisib],,selectivity for the α-subunit compared to the β-subunit [11]: 31 fold

# Source: patent US20240246994A1, “Polymorph Of Imidazolidinone Compound, Preparation Method Therefor And Use Thereof” (Betta Pharmaceuticals Co., Ltd., priority 2021, published 2024)
